Ki data for 6 compounds are collected here from ChEMBL document CHEMBL1132473 (J Med Chem, 1999).

One may read the Ki as a dissociation constant, usually derived from enzyme kinetics or from competition with a known ligand. The low end stands for tighter binding, the high end for weaker binding.

The target in this experiment is 4-aminobutyrate aminotransferase, mitochondrial (Sus scrofa, UniProt P80147). In words: Compound was tested for the inhibition of Gamma-amino-N-butyrate transaminase (GABA-AT).
4-aminobutyrate aminotransferase, mitochondrial, sequence (P80147 whole entry): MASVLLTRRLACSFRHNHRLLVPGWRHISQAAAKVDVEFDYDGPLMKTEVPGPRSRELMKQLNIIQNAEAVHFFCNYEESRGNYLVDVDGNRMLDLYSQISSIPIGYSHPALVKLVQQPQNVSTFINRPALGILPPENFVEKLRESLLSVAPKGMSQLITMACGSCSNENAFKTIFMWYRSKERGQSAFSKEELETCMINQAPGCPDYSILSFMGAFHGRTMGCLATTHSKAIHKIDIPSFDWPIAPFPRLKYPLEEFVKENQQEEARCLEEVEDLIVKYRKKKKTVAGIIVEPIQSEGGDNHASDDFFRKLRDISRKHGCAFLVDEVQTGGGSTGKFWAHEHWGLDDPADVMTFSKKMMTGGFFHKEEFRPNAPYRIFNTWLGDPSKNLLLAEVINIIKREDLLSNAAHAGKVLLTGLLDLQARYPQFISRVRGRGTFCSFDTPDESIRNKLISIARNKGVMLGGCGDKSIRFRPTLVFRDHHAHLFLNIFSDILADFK
As to `N[C@@H]1CC=C(C(=O)O)C1`, affinity was put at a Ki of 1.2 mM.
With `N[C@@H]1C=C[C@@H](C(=O)O)C1` the figure was 38 mM; with `N[C@H]1C=C[C@@H](C(=O)O)C1`, 2.7 mM; with `N[C@@H]1C=C[C@H](C(=O)O)C1`, 0.052 mM.
Next, `N[C@H]1CC=C(C(=O)O)C1`: 72 mM; `NC1C=CC(C(=O)O)C1` (racemic): 0.6 mM.
